{"source": "ChEMBL document CHEMBL1201862", "about": "“PubChem BioAssay data set” (2004)", "key": {"[1]": {"target": "T1, Hepatocyte nuclear factor 4-alpha (Homo sapiens, UniProt P41235)", "T1 sequence (P41235 whole entry)": "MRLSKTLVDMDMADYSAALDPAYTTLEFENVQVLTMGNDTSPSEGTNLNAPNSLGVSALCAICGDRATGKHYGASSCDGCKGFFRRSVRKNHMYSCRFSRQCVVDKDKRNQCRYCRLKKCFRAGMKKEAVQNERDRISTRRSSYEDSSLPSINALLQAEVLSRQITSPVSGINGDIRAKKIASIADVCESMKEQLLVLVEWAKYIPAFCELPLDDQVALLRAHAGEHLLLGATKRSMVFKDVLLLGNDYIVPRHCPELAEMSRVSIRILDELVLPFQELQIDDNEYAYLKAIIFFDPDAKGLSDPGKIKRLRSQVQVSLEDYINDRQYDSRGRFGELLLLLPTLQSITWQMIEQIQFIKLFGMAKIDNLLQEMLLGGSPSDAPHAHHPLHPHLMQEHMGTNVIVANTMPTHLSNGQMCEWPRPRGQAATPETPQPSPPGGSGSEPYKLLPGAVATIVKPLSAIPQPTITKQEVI", "format": "functional, cell-based"}, "[2]": {"target": "T2, Calpain-2 catalytic subunit (Sus scrofa, UniProt P43367)", "T2 sequence (P43367 whole entry)": "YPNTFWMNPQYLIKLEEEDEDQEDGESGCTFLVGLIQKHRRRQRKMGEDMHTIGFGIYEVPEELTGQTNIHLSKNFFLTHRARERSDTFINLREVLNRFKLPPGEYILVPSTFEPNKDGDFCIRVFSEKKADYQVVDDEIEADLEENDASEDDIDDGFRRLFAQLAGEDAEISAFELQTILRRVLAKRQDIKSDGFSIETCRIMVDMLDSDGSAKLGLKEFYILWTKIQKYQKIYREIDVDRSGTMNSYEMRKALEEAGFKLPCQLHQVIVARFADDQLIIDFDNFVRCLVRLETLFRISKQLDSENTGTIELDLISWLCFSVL", "experiment": "pig calpain II inhibitor potency, dose response, biochemical, fluorogenic peptide substrate (AID 1420)", "format": "functional"}, "[3]": {"target": "Lysine-specific demethylase 4C (Homo sapiens, UniProt Q9H3R0)", "sequence (Q9H3R0 whole entry)": "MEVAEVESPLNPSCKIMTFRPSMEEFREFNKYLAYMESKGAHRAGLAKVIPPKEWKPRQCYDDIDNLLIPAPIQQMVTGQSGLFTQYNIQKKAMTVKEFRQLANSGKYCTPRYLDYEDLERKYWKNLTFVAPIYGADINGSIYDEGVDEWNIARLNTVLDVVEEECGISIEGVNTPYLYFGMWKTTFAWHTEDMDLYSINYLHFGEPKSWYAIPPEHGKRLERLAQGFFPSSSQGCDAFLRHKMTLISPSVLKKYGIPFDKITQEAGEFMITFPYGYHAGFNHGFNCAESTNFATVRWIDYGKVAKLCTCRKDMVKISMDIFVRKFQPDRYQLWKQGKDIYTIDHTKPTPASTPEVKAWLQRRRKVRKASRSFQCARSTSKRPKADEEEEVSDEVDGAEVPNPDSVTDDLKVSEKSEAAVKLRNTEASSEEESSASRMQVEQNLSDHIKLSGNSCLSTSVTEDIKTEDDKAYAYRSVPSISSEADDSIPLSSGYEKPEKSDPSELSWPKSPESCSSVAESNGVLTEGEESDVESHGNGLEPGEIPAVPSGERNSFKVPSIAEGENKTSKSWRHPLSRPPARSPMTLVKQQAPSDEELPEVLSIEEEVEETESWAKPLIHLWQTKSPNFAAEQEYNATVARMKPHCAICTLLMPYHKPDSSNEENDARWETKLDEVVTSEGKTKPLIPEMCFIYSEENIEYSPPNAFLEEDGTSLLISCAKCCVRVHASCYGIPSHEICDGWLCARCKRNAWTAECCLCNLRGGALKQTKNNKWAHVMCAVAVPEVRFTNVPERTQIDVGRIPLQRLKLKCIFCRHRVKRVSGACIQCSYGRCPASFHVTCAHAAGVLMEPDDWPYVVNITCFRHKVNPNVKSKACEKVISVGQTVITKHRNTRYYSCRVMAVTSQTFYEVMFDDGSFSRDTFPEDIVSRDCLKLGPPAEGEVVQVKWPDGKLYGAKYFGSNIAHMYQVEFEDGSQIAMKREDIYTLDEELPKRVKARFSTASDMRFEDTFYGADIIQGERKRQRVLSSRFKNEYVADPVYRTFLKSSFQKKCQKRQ", "experiment": "GASC-1 (JMJD2C) histone demethylase inhibitors, dose response, biochemical, DELFIA europium, cherry-picked samples (AID 488835)", "format": "functional"}, "HEK293": {"tested_on": "HEK293", "experiment": "cells", "format": "functional, cell-based", "details": "Homo sapiens"}, "[4]": {"target": "T3, Nuclear receptor subfamily 0 group B member 1 (Homo sapiens, UniProt P51843)", "T3 sequence (P51843 whole entry)": "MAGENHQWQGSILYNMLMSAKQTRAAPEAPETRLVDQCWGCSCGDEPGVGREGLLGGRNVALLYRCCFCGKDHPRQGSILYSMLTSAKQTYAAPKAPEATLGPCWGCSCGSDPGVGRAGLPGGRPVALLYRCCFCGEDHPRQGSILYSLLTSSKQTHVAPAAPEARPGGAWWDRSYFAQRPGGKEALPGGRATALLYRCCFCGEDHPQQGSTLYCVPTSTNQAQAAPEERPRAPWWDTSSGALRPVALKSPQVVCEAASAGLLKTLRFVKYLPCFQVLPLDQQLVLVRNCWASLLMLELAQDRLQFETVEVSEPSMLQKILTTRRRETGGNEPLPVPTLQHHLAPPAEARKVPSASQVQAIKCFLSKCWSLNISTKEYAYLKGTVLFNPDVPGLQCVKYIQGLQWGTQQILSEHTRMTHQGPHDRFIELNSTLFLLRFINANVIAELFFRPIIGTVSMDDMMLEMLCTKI", "experiment": "Luminescence-based cell-based high throughput dose response assay for inhibitors of the orphan nuclear receptor subfamily 0, group B, member 1 (DAX1; NR0B1). [Related pubchem assays (depositor defined):AID504766, AID504790]", "format": "functional"}, "[5]": {"target": "DNA dC->dU-editing enzyme APOBEC-3A (Homo sapiens, UniProt P31941)", "sequence (P31941 whole entry)": "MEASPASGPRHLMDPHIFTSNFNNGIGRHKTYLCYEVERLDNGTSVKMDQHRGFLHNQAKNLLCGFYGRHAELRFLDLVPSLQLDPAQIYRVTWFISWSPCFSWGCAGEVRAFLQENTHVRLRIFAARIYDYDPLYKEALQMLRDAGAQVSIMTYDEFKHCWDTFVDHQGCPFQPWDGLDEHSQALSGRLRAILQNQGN", "experiment": "APOBEC3A DNA deaminase inhibitors, dose response, biochemical (AID 504722)", "format": "functional"}, "[6]": {"target": "T4, Dual specificity protein phosphatase 3 (Homo sapiens, UniProt P51452)", "T4 sequence (P51452 whole entry)": "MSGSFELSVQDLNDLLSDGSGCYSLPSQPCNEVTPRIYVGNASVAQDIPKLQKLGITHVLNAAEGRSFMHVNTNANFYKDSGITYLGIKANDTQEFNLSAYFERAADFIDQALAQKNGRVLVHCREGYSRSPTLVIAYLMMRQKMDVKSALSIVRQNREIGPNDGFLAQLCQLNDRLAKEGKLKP", "experiment": "SAR VHR1 Fluorescent Assay for In Vitro dose response studies Set 2. [Related pubchem assays (depositor defined):AID1654, AID1661, AID1878]", "format": "functional"}, "[7]": {"target": "T5, Tyrosine-protein phosphatase non-receptor type 7 (Homo sapiens, UniProt P35236)", "T5 sequence (P35236 whole entry)": "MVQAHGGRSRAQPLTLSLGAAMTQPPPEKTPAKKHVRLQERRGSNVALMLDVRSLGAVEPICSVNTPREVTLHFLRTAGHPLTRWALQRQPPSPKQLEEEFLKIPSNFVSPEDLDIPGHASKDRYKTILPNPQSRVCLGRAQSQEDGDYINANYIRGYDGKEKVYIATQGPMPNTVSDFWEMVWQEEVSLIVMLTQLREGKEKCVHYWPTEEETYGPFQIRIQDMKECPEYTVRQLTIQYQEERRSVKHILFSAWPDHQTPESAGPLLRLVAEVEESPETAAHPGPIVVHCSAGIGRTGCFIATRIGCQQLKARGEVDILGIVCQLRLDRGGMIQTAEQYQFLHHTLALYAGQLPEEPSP", "experiment": "HePTP (PTPN7) phosphatase inhibitor potency, SAR follow-up, biochemical, set 2 (AID 449736)", "format": "functional"}, "[8]": {"target": "T5, Tyrosine-protein phosphatase non-receptor type 7", "experiment": "SAR analysis of chemical inhibitors of HePTP using a Fluorescent assay - Set 2. [Related pubchem assays (depositor defined):AID1059, AID1077, AID1661, AID2085, AID521]", "format": "functional"}, "[9]": {"target": "T4, Dual specificity protein phosphatase 3", "experiment": "SAR VHR1 absorbance Assay for In Vitro dose response studies. [Related pubchem assays (depositor defined):AID1654, AID1661, AID1878, AID1992, AID2004]"}, "[10]": {"target": "T5, Tyrosine-protein phosphatase non-receptor type 7", "experiment": "redox-dependent HePTP inhibition, mechanism study, biochemical, fluorescence (AID 2068)", "format": "functional"}, "[11]": {"target": "T4, Dual specificity protein phosphatase 3", "experiment": "SAR VHR1 Fluorescent Assay for In Vitro dose response studies. [Related pubchem assays (depositor defined):AID1654, AID1661, AID1878, AID1992, AID2004, AID2070, AID2085]", "format": "functional"}, "[12]": {"target": "DNA dC->dU-editing enzyme APOBEC-3G (Homo sapiens, UniProt Q9HC16)", "sequence (Q9HC16 whole entry)": "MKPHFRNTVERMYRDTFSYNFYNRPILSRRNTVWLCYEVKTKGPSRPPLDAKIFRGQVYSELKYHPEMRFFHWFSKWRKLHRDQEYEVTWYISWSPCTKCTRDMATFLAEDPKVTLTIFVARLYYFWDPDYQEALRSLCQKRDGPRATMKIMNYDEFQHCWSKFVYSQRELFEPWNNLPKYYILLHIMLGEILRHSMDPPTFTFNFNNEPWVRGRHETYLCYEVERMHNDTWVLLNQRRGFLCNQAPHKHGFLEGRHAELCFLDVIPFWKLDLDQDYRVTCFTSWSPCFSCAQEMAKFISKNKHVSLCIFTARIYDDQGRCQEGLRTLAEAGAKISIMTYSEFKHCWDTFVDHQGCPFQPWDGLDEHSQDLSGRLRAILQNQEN", "experiment": "Dose Response confirmation of small molecule APOBEC3G DNA Deaminase Inhibitors via a fluorescence-based single-stranded DNA deaminase assay. [Related pubchem assays (depositor defined):AID493012, AID493028]", "format": "functional"}, "[13]": {"target": "T6, Dual specificity protein phosphatase 6 (Rattus norvegicus, UniProt Q64346)", "T6 sequence (Q64346 whole entry)": "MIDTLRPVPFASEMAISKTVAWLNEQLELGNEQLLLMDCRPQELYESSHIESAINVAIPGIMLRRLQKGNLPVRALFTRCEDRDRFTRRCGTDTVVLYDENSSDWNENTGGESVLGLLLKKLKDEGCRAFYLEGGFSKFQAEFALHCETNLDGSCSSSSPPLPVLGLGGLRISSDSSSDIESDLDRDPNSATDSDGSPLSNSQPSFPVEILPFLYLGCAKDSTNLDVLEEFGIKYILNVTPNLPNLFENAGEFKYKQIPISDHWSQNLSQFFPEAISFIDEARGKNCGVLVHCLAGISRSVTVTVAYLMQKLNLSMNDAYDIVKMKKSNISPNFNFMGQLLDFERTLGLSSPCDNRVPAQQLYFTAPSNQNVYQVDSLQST", "format": "functional"}, "[14]": {"target": "T6, Dual specificity protein phosphatase 6", "experiment": "SAR analysis of inhibitors of MKP-3 - Set 2. [Related pubchem assays (depositor defined):AID1055, AID1661, AID425, AID553, AID566]", "format": "functional"}}, "note": "Where “and” joins values, the source holds several entries; their conditions need not be identical. Equal values may be shown once. Calls of active or inactive are those of the source. For most assays here, no stated cut-off is given here; in the data, actives have a measured IC50 and inactives only a lower limit."}
{"smiles": "CC1CN(Cc2c(O)ccc3c2oc(=O)c2ccccc23)CC(C)O1", "note": "(stereo unspecified)", "values": [{"measurement": "IC50", "setting": "[1]", "result": "2.68 µM (active)"}, {"measurement": "IC50", "setting": "[2]", "result": "3.06 µM (not active)"}, {"measurement": "AC50", "setting": "[3]", "result": "0.95 µM (active)"}]}
{"smiles": "CCSc1nnc(NC(=O)C2CCCN(S(=O)(=O)c3c[nH]cn3)C2)s1", "note": "(stereo unspecified)", "values": [{"measurement": "IC50", "setting": "HEK293", "result": "> 67.5 µM (inactive)"}, {"measurement": "IC50", "setting": "[4]", "result": "> 67.5 µM (inactive)"}]}
{"smiles": "Cc1cccc(-n2c(N)c(C(=O)N3CCN(C)CC3)sc2=S)c1", "values": [{"measurement": "IC50", "setting": "[5]", "result": "> 100 µM (inactive)"}, {"measurement": "IC50", "setting": "[6]", "result": "0.96 µM (active)"}, {"measurement": "IC50", "setting": "[7]", "result": "3.6 µM (active) and 8.47 µM (active) and > 100 µM (inactive)"}, {"measurement": "IC50", "setting": "[8]", "result": "4.7 µM (active)"}, {"measurement": "IC50", "setting": "[9]", "result": "3.32 µM (active)"}, {"measurement": "IC50", "setting": "[10]", "result": "0.108 µM (active)"}, {"measurement": "IC50", "setting": "[11]", "result": "> 99 µM (inactive)"}, {"measurement": "IC50", "setting": "[12]", "result": "12.2 µM (active)"}, {"measurement": "IC50", "setting": "[13]", "result": "> 99 µM (inactive)"}, {"measurement": "IC50", "setting": "[14]", "result": "> 100 µM (inactive)"}]}
{"smiles": "COC(=O)c1ccc(CSc2nc(O)c3c(C)c(C(=O)O)sc3n2)cc1", "values": [{"measurement": "AC50", "setting": "[3]", "result": "10.6 µM (active)"}]}
